From paper PMC7539012, “Hyperphosphorylated tau aggregation and cytotoxicity modulators screen identified prescription drugs linked to Alzheimer's disease and cognitive functions” (Scientific Reports, 2020)
Where a name gives a salt, the structure may show the parent alone.

These compounds were tested on T1, 1N4R p-tau (assay: p-tau aggregation modulator screen of 1280-compound library (ThS fluorescence net change over 16 h)). Settings: not given.
T1 construct: made in house; host or cells: E. coli (PIMAX system)
Type: biochemical
Set-up: key to PTAI>2SD: *: PTAI>2SD; key to PTAI>3SD: *: PTAI>3SD
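For ThS net change in this document: 30 µM compound with 6 µM p-tau over 16 h.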

Q: With C[C@H](N[C@@H](CCc1ccccc1)C(=O)O)C(=O)N1CCC[C@H]1C(=O)O.O.O [Enalaprilat dihydrate] as the compound, how does the ThS net change read?
A: 438

Q: With Merbromin as the compound, how does the ThS net change read?
A: 306

Q: O=C(NCNC(=O)NC1C(=O)NC(=O)N1CO)NC1C(=O)NC(=O)N1CO (stereo not shown) [Imidurea] was tested. Which ThS net change did it give?
A: 463

Q: With C[C@@H]1C[C@H]2[C@@H]3C[C@H](F)C4=CC(=O)C=C[C@]4(C)[C@@]3(F)[C@@H](O)C[C@]2(C)[C@@]1(O)C(=O)COC(=O)C(C)(C)C [Flumethasone pivalate] as the compound, how does the ThS net change read?
A: 476

Same assay, conditions: 1280-compound library screen; ThS fluorescence net change over 16 h

Q: With C[C@H]1C[C@H]2[C@@H]3CCC4=CC(=O)C=C[C@]4(C)[C@@]3(F)[C@@H](O)C[C@]2(C)[C@@]1(O)C(=O)CO [Betamethasone] as the compound, how does the ThS net change read?
A: 395

Q: How did the ThS net change turn out when COc1ccc(C(=O)NCc2ccc(OCCN(C)C)cc2)cc1OC [Itopride] was run?
A: 405

Q: Which ThS net change does the source give for Oc1ccc(OCc2ccccc2)cc1 [Monobenzone] here?
A: 382

Q: How did the ThS net change turn out when N#Cc1cc(NC(=O)C(=O)O)c(Cl)c(NC(=O)C(=O)O)c1 [Lodoxamide] was run?
A: 409

Q: Which ThS net change does the source give for O=C(c1ccccc1)c1ccc2n1CCC2C(=O)O (stereo not shown) [Ketorolac tromethamine] here?
A: 382

Q: With CCCC1O[C@@H]2C[C@H]3[C@@H]4CCC5=CC(=O)C=C[C@]5(C)[C@H]4[C@@H](O)C[C@]3(C)[C@]2(C(=O)CO)O1 (stereo partly shown) [Budesonide] as the compound, how does the ThS net change read?
A: 389

Q: Which ThS net change does the source give for COc1ccccc1O [Guaiacol] here?
A: 397

Q: How did the ThS net change turn out when CN(C)CCOc1ccc(/C(=C(/CCCl)c2ccccc2)c2ccccc2)cc1 [Toremifene] was run?
A: 406

Q: Which ThS net change does the source give for CCN(CC)C(=O)c1ccc(O)c(OC)c1 [Ethamivan] here?
A: 386

Q: How did the ThS net change turn out when CSc1nc2cc(Cl)c(Oc3cccc(Cl)c3Cl)cc2[nH]1 [Triclabendazole] was run?
A: 382

Q: With C#C[C@]1(O)CC[C@H]2[C@@H]3CCC4=CCCC[C@@H]4[C@H]3CC[C@@]21C [Lynestrenol] as the compound, how does the ThS net change read?
A: 408

Q: With O=C1c2ccccc2C(=O)C1c1ccccc1 [Phenindione] as the compound, how does the ThS net change read?
A: 378

Same assay, conditions: 1280-compound library screen; […]

Q: Which ThS net change does the source give for CC[C@@H]1C(=O)OC[C@@H]1Cc1cncn1C [Pilocarpine nitrate] here?
A: 378

Q: With CNCC[C@@H](Oc1ccccc1C)c1ccccc1 [Tomoxetine hydrochloride] as the compound, how does the ThS net change read?
A: 389

Q: For CC1(C)S[C@@H]2[C@H](NC(=O)[C@H](C(=O)O)c3ccsc3)C(=O)N2[C@H]1C(=O)O [Ticarcillin sodium], which ThS net change is on record?
A: 407

Same assay, conditions: flag: p-tau aggregation inhibitor, ThS net change more than 2 SD from mean

Q: CCCCOc1ccc(CC(=O)NO)cc1 [Bufexamac] was tested. Which “PTAI>2SD” value did it give?
A: *

Q: For CN(C)c1ccc(O)c2c1C[C@H]1C[C@H]3[C@H](N(C)C)C(O)=C(C(N)=O)C(=O)[C@@]3(O)C(O)=C1C2=O [Minocycline hydrochloride], which “PTAI>2SD” value is on record?
A: *

Same assay, conditions: flag: p-tau aggregation inhibitor, ThS net change more than 3 SD from mean

Q: How did the “PTAI>3SD” value turn out when Nc1ccc(/N=N/c2ccccc2)c(N)n1 [Phenazopyridine hydrochloride] was run?
A: *

Q: Which “PTAI>3SD” value does the source give for O=C1c2c(O)cccc2Cc2cccc(O)c21 [Anthralin] here?
A: *

Q: NS(=O)(=O)c1cc2c(cc1Cl)NC(CC1CCCC1)NS2(=O)=O (stereo not shown) [Cyclopenthiazide] was tested. Which “PTAI>3SD” value did it give?
A: *

Same assay, conditions: library screen, ThS fluorescence net change over 16 h with p-tau

Q: Which ThS net change does the source give for O=C(O)c1cc(-c2ccc(F)cc2F)ccc1O [Diflunisal] here?
A: 304

Q: CCOc1ccc2ccccc2c1C(=O)N[C@@H]1C(=O)N2[C@@H]1SC(C)(C)[C@@H]2C(=O)O [Nafcillin sodium salt monohydrate] was tested. Which ThS net change did it give?
A: 317

Q: Which ThS net change does the source give for O=C(CCCN1CCC(O)(c2ccc(Cl)cc2)CC1)c1ccc(F)cc1 [Haloperidol] here?
A: 319

Q: How did the ThS net change turn out when CC1CC(OC(=O)c2ccccc2O)CC(C)(C)C1 (stereo not shown) [Homosalate] was run?
A: 279

Q: How did the ThS net change turn out when COC(=O)C1=C(C)NC(C)=C(C(=O)O[C@@H]2CCCN(Cc3ccccc3)C2)[C@@H]1c1cccc([N+](=O)[O-])c1.Cl (racemic) [Benidipine hydrochloride] was run?
A: 259

Q: Which ThS net change does the source give for O=C(Nc1cccc2c(=O)cc(-c3nnn[nH]3)oc12)c1ccc(OCCCCc2ccccc2)cc1 [Pranlukast] here?
A: 288

Q: Which ThS net change does the source give for CCCCOc1ccc(CC(=O)NO)cc1 [Bufexamac] here?
A: 140

Q: For CN(C)c1ccc(O)c2c1C[C@H]1C[C@H]3[C@H](N(C)C)C(O)=C(C(N)=O)C(=O)[C@@]3(O)C(O)=C1C2=O [Minocycline hydrochloride], which ThS net change is on record?
A: 121

Q: How did the ThS net change turn out when Clc1ccc(C(Cn2ccnc2)OCc2c(Cl)cccc2Cl)c(Cl)c1 (stereo not shown) [Isoconazole] was run?
A: 296

Q: Nc1ccc(/N=N/c2ccccc2)c(N)n1 [Phenazopyridine hydrochloride] was tested. Which ThS net change did it give?
A: 12

Q: O=C1c2c(O)cccc2Cc2cccc(O)c21 [Anthralin] was tested. Which ThS net change did it give?
A: 85

Q: How did the ThS net change turn out when CN(C)CCCOc1nn(Cc2ccccc2)c2ccccc12 [Benzydamine hydrochloride] was run?
A: 310

Q: For CN(C)[C@@H]1C(O)=C(C(N)=O)C(=O)[C@@]2(O)C(O)=C3C(=O)c4c(O)ccc(Cl)c4[C@@](C)(O)[C@H]3C[C@@H]12 [Chlortetracycline hydrochloride], which ThS net change is on record?
A: 223

Q: Which ThS net change does the source give for NS(=O)(=O)c1cc2c(cc1Cl)NC(CC1CCCC1)NS2(=O)=O (stereo not shown) [Cyclopenthiazide] here?
A: 0

Same assay, conditions: p-tau aggregation modulator screen of 1280-compound library; ThS fluorescence net change

Q: With C[C@]12CC[C@@H]3c4ccc(OS(=O)(=O)O)cc4CC[C@H]3[C@@H]1CCC2=O [Estropipate] as the compound, how does the ThS net change read?
A: 359

Q: With Cc1cc(CC(=O)[O-])n(C)c1C(=O)c1ccc(Cl)cc1.[Na+] [Zomepirac sodium salt] as the compound, how does the ThS net change read?
A: 356

Q: CC(CCc1ccccc1)NCC(O)c1ccc(O)c(C(N)=O)c1 (stereo not shown) [Labetalol hydrochloride] was tested. Which ThS net change did it give?
A: 353

Q: How did the ThS net change turn out when CC(C)NCC(O)COc1ccc(CC(N)=O)cc1 (stereo in doubt) [(S)-(-)-Atenolol] was run?
A: 363

Q: How did the ThS net change turn out when Cc1cc(NC(=O)C2=C(O)c3ccccc3S(=O)(=O)N2C)no1 [Isoxicam] was run?
A: 364

Q: For Oc1c(I)cc(Cl)c2cccnc12 [Clioquinol], which ThS net change is on record?
A: 336

Q: How did the ThS net change turn out when CN1C(C)(C)CCCC1(C)C [Pempidine tartrate] was run?
A: 362

Q: For CN(C)CCCC1(c2ccc(F)cc2)OCc2cc(C#N)ccc21 (stereo not shown) [Citalopram Hydrobromide], which ThS net change is on record?
A: 351

Q: How did the ThS net change turn out when C1CCC(C(CC2CCCCN2)C2CCCCC2)CC1 (stereo not shown) [Perhexiline maleate] was run?
A: 342

Q: With CC(=O)/N=c1/sc(S(N)(=O)=O)nn1C [Methazolamide] as the compound, how does the ThS net change read?
A: 377

Q: With CN1CCN(C(c2ccccc2)c2ccccc2)CC1.Cl [Cyclizine hydrochloride] as the compound, how does the ThS net change read?
A: 377

Q: Which ThS net change does the source give for Fc1ccc([C@@H]2CCNC[C@H]2COc2ccc3c(c2)OCO3)cc1 [Paroxetine Hydrochloride] here?
A: 363

Q: CN(C)CCN(Cc1cccs1)c1ccccn1 [Methapyrilene hydrochloride] was tested. Which ThS net change did it give?
A: 370

Q: How did the ThS net change turn out when [H]/N=C(/N)NS(=O)(=O)c1ccc(N)cc1 [Sulfaguanidine] was run?
A: 364

Q: For CCC(=O)OCC(=O)[C@@]1(OC(=O)CC)[C@@H](C)C[C@H]2[C@@H]3CCC4=CC(=O)C=C[C@]4(C)[C@@]3(Cl)[C@@H](O)C[C@@]21C [Beclomethasone dipropionate], which ThS net change is on record?
A: 354

Same assay, conditions: p-tau aggregation modulator screen of 1280-compound library; […]

Q: CCN(CC)CCCC(C)Nc1ccnc2cc(Cl)ccc12 (stereo not shown) [Chloroquine diphosphate] was tested. Which ThS net change did it give?
A: 338

Q: For Br.C[N+]1([O-])[C@@H]2C[C@@H](OC(=O)[C@H](CO)c3ccccc3)C[C@H]1[C@@H]1O[C@@H]12 (stereo partly shown) [Scopolamin-N-oxide hydrobromide], which ThS net change is on record?
A: 345

Q: Which ThS net change does the source give for CCC(=O)OCC(=O)[C@@]1(OC(=O)CC)[C@H](C)C[C@H]2[C@H]3[C@H]([C@@H](O)C[C@@]21C)[C@@]1(C)C=CC(=O)C=C1C[C@H]3Cl [Alclometasone dipropionate] here?
A: 363

Q: How did the ThS net change turn out when Br.CN1[C@@H]2CC[C@H]1C[C@@H](OC(=O)C(O)c1ccccc1)C2 (stereo partly drawn) [Homatropine hydrobromide (R,S)] was run?
A: 332

Same assay, conditions: p-tau aggregation modulator screen of the compound library, ThS fluorescence net change

Q: For CC[C@H](C)[C@H]1O[C@]2(C=C[C@@H]1C)C[C@@H]1C[C@@H](C/C=C(\C)[C@@H](O[C@H]3C[C@H](OC)[C@@H](O[C@H]4C[C@H](OC)[C@@H](O)[C@H](C)O4)[C@H](C)O3)[C@@H](C)/C=C/C=C3\CO[C@@H]4[C@H](O)C(C)=C[C@@H](C(=O)O1)[C@]34O)O2 [Avermectin B1a], which ThS net change is on record?
A: 676

Q: C[C@H]1O[C@H](O[C@H]2[C@H](O)[C@@H](O)[C@@H](O[C@H]3[C@H](O)[C@@H](O)C(O)O[C@@H]3CO)O[C@@H]2CO)[C@H](O)[C@@H](O)[C@@H]1N[C@H]1C=C(CO)[C@@H](O)[C@H](O)[C@H]1O (stereo partly shown) [Acarbose] was tested. Which ThS net change did it give?
A: 414

Q: For C#C[C@]1(OC(C)=O)CC[C@H]2[C@@H]3CCC4=CC(=NO)CC[C@@H]4[C@H]3CC[C@@]21CC (mixture of isomers) [Norgestimate], which ThS net change is on record?
A: 486

Q: Which ThS net change does the source give for CC(C)n1c(/C=C/C(O)CC(O)CC(=O)O)c(-c2ccc(F)cc2)c2ccccc21 (stereo not shown) [Fluvastatin sodium salt] here?
A: 473

Q: How did the ThS net change turn out when CN(C)c1nc(N(C)C)nc(N(C)C)n1 [Altretamine] was run?
A: 414

Q: How did the ThS net change turn out when CNC1(C)C2CCC(C2)C1(C)C (stereo not shown) [Mecamylamine hydrochloride] was run?
A: 418

Q: For O=C(O)CNC(=O)C(CS)Cc1ccccc1 (stereo not shown) [Thiorphan], which ThS net change is on record?
A: 462

Q: CCOC(=O)[C@H](CCc1ccccc1)N[C@@H](C)C(=O)N1CCC[C@H]1C(=O)O [Enalapril maleate] was tested. Which ThS net change did it give?
A: 2088

Q: Which ThS net change does the source give for Cn1c(=O)c2c(ncn2CC(=O)O)n(C)c1=O [Acefylline] here?
A: 416

Q: Which ThS net change does the source give for CC[C@H]1OC(=O)[C@H](C)[C@@H](O[C@H]2C[C@@](C)(OC)[C@@H](O)[C@H](C)O2)[C@H](C)[C@@H](O[C@@H]2O[C@H](C)C[C@H](N(C)C)[C@H]2O)[C@](C)(O)C[C@@H](C)[C@@H]2N[C@@H](COCCOC)O[C@H]([C@H]2C)[C@]1(C)O [Dirithromycin] here?
A: 418

Q: With CN[C@@H]1[C@@H](O[C@H]2O[C@H](CO)[C@@H](N)[C@H](O)[C@H]2O)OC2C[C@@H](N)[C@@H](O[C@H]3[C@H](O)[C@@H](O)[C@H](N)C[C@@H]3N)OC2[C@@H]1O (stereo partly shown) [Apramycin] as the compound, how does the ThS net change read?
A: 416

Q: With CCCc1cc(=O)[nH]c(=S)[nH]1 [Propylthiouracil] as the compound, how does the ThS net change read?
A: 422

Q: Which ThS net change does the source give for CC1/C=C/C=C/CC/C=C/C=C/C=C/C=C/C(O[C@@H]2O[C@H](C)[C@@H](O)[C@H](N)[C@@H]2O)CC(O)C(C(=O)O)C(O)CC(=O)CC(O)C(O)CCC(O)CC(O)CC(O)CC(=O)OC(C)C(C)C1O (stereo partly shown) [Nystatine] here?
A: 446

Q: For Cc1[nH]cnc1CN1CCc2c(c3ccccc3n2C)C1=O [Alosetron hydrochloride], which ThS net change is on record?
A: 429

Q: Which ThS net change does the source give for CCN1CC(CCN2CCOCC2)C(c2ccccc2)(c2ccccc2)C1=O.Cl (stereo not shown) [Doxapram hydrochloride] here?
A: 418

Q: For CN(C)CC/C=C1/c2ccccc2COc2ccc(CC(=O)O)cc21 [Olopatadine hydrochloride], which ThS net change is on record?
A: 439
